Results as given in patent US8895501B2, “Eye-drop vaccine containing copolymer 1 for therapeutic immunization” (Yeda Research and Development Co. Ltd., priority 2003, dated 2014).
Where “and” joins values, the source holds several entries; their conditions need not be identical. Equal entries are not always repeated.

Assays:
[1] = tested on: retinal ganglion cells (RGCs); experiment: Chronic high IOP model (laser-induced), IOP-induced RGC death; format: in vivo, rat; details: for % of death of RGCs: non-thymectomized rats; for % of death of RGCs / loss of RGCs (% death): treatment started immediately after IOP elevation (Cop-1 single injection, brimonidine daily), 3 weeks; for loss of RGCs (% death): thymectomized (T cell-deprived) rats
Excerpt: (§1) Inbred adult male Lewis and Sprague-Dawley (SPD) rats (8 weeks; average weight 300 g) were supplied by the Animal Breeding Center at The Weizmann Institute of Science (Rehovot, Israel). The rats were maintained in a light- and temperature-controlled room and were matched for age and weight before each experiment. All animals were handled according to the regulations formulated by IACUC ([…]).
Blockage of aqueous outflow causes an increase in IOP, which results in RGC death (Bakalash et al., 2002; Schori et al., 2001; Jia et al., 2000a; Levkovitch-Verbin et al., 2002). […] Rats were deeply anesthetized by intramuscular injection of ketamine hydrochloride (50 mg/kg) and xylazine hydrochloride (0.5 mg/kg). A slit lamp emitting blue-green argon laser irradiation (Haag-Streit, Köniz, Switzerland) was used to treat the right eye of the anesthetized rat with 80 to 120 applications directed toward three of the four episcleral veins and toward 270° of the limbal plexus. The laser beam was applied with a power of 1 W for 0.2 seconds, producing a spot size of 100 μm at the episcleral veins and 50 μm at the limbal plexus. At a second laser session 1 week later, the same parameters were used, except that the spot size was 100 μm in all applications. Irradiation was directed toward all four episcleral veins and 360° of the limbal plexus (Schori et al. 2001).
(§2) Eyes from untreated rats were used as a control. RGCs were counted by an observer who was blinded to the identity of the retinas.
Rats with either laser-induced increase in IOP or acute IOP elevation were immunized with Cop 1 (100 μg) (Teva Pharmaceutical Industries Ltd., Petach Tikva, Israel) emulsified in 2.5 mg/ml of CFA in a total volume of 100 μl (Kipnis et al., 2000). Each animal was vaccinated subcutaneously at the root of the tail.
(§3) Cop-1 in PBS was given at different concentrations and at different time points after the primary insult subcutaneously. Topical administration of Cop-1 was done after immersing the substance in PBS at a concentration of 20 mg/ml. Since each drop was of 50 μl, we administered 1 drop every 5 minutes for a total of 5 drops in 25 minutes.

[2] = tested on: retinal ganglion cells (RGCs); experiment: Acute transient high IOP model, IOP-induced RGC death; format: in vivo, Lewis rats
Excerpt: as §1
The infusion bag was placed 1 meter above the rat's head, creating a closed loop circulation. High IOP was induced for exactly 1 hour after which the needle was removed from the eye and the hole was self-sealed.
as §2, §3

Compound	% of death of RGCs [1]	loss of RGCs (% death) [1]	% of RGC death ([1]; Cop-1 emulsified in CFA, day of first laser plus 2, 6 and 9 weeks later, retinas excised 12 weeks after first laser, n=5)	% of RGC death ([1]; Cop-1 emulsified in CFA, immunized on day of first laser, retinas excised 3 weeks later, n=7)	% of RGC death ([1]; adjuvant-free 500 μg, daily injections for 7 days starting on day 0, retinas excised 3 weeks later)	% of RGC death ([1]; adjuvant-free 500 μg, single injection on day 7 after first laser, retinas excised 3 weeks later)	% of RGC death ([1]; adjuvant-free, subcutaneous, 100 μg on first day of laser treatment)	% of RGC death ([1]; adjuvant-free, subcutaneous, 250 μg on first day of laser treatment)	% of RGC death ([1]; adjuvant-free, subcutaneous, 500 μg on first day of laser treatment)	RGC protection 6 weeks after IOP was first elevated, comparison of regimens ([1]; adjuvant-free, two injections (day 0 and 3 weeks later) versus a single injection after 3 weeks)	number of RGCs ([1]; eye drops without adjuvant, 5 mg Cop-1, assessed 3 weeks after pressure elevation, p<10^-5)	Average death rate of RGCs ([2]; 5 mg Cop-1 over 25 minutes immediately after 1 hour of elevated IOP, two weeks after IOP elevation, n=4)	RGC protection, eye drops applied to the eye contralateral to the elevated pressure ([2]; Cop-1 eye drops to contralateral side versus ipsilateral)	loss of RGCs ([2]; Cop-1 without adjuvant, 2 weeks after transient IOP elevation (1 hour))
Brc1c(NC2=NCCN2)ccc2nccnc12 [brimonidine]	34.5±3.51%	38±7%												
glatiramer acetate [Cop-1]	23.5±5.7%	55±5.2% and 55%	33.7±1.4%	12.6±5%	41.41±6%	19.1±14.7%	44±6%	50.5±8%	26.6±10%	more effective than a single injection after 3 weeks	150 RGCs	31.12%±3.22	same effect as when given ipsilaterally	20%
